Measured values: patent publication US20180312844A1, “TREATMENT FOR CANCER METASTASIS” (The Board of Regents of the UIniversity of Texas System, priority 2015, published 2018)

Columns and labels:
[1] = tested on: human melanoma cells (M405, M481, UT10) transplanted subcutaneously; assay: Growth of primary subcutaneous tumors of patient-derived melanoma xenografts in NSG mice; format: in vivo
From the text: (§1) Melanoma specimens were obtained with informed consent from all patients according to protocols approved by the Institutional Review Boards of the University of Michigan Medical School (IRBMED approvals HUM00050754 and HUM00050085 (Quintana et al., 2012) and the University of Texas Southwestern Medical Center. Unless otherwise indicated, patient-derived xenografts were established by subcutaneously injecting 100 freshly dissociated melanoma cells into the right flanks of NOD/SCID IL2Rγ^null (NSG) mice in 25% high-protein Matrigel, or by injecting intravenously or intrasplenically, depending on the experiment. The subcutaneous tumors were measured every 10 days until any tumor in the mouse cohort reached 2.5 cm in its largest diameter. Mice were monitored daily for signs of distress and euthanized according to a standard body condition score or when their tumors reached 2.5 cm in largest diameter, whichever came first. […] After intravenous and intrasplenic injections mice were imaged every month until the bioluminescence signal was saturated, then mice were euthanized and organs were analyzed visually and by bioluminescence imaging for the presence of micro and macrometastases. […] Reporters of mitochondrial mass, mitochondrial membrane potential, and ROS were used to stain equal numbers of dissociated melanoma cells and analyzed by flow cytometry. […]

[2] = tested on: circulating human melanoma cells; assay: Frequency of circulating melanoma cells in the blood by flow cytometry; format: in vivo, NSG mice
From the text: as §1

[3] = tested on: human melanoma metastases in visceral organs; assay: Metastatic disease burden by total bioluminescence signal from visceral organs; format: in vivo, NSG mice
From the text: as §1

melanoma = details: at 5 years; 2011 meta-analysis; adjuvant treatment of melanoma; cited from earlier work

Compound: CN(Cc1cnc2nc(N)nc(N)c2n1)c1ccc(C(=O)N[C@@H](CCC(=O)O)C(=O)O)cc1 [Methotrexate]
- growth of primary subcutaneous tumors ([1]; low dose methotrexate 1.25 mg/kg/day with thymidine and hypoxanthine, M405, M481, UT10, vs DMSO control, FIG. 5B): no significant effect
- frequency of circulating melanoma cells in the blood ([2]; methotrexate 1.25 mg/kg/day with thymidine and hypoxanthine, M405, M481, UT10, FIG. 5C): significantly reduced
- metastatic disease burden ([3]; methotrexate 1.25 mg/kg/day with thymidine and hypoxanthine, M405, M481, UT10, FIG. 5D): significantly reduced

Compound: CC(=O)N[C@@H](CS)C(=O)O [NAC, N-acetyl-cysteine]
- growth of primary subcutaneous tumors ([1]; NAC 200 mg/kg/day, daily subcutaneous injection, melanomas M405, M481, UT10, vs PBS, FIG. 4A): In no case did NAC treatment significantly affect
- frequency of melanoma cells in the blood ([2]; NAC 200 mg/kg/day s.c., mice transplanted with M405 and UT10, FIG. 4B): significantly increased
- metastatic disease burden ([3]; NAC 200 mg/kg/day s.c., mice transplanted with M405 and M481, FIG. 4C): significantly increased

Compound: interferon
- increase in survival (melanoma): 3%
